Where two headings read alike, the source gives them in different places.
Experiments:
Ehrlich Solid Tumor = test: Anti-tumor activity against Ehrlich Solid Tumor, Test Example 3; format: in vivo, ddY mice; conditions: for Average size of tumor / Average weight of tumor / TIR (%), tumor size / TIR (%), tumor weight: 7 times on alternate days, day 30; for host-mediated anti-tumor effect (in words): summary statement
Experimental: Anti-tumor activity of arphamenine against Ehrlich Solid Tumor.
3×10^6 cells of Ehrlich ascites tumor were transplanted subcutaneously into the flank of ddY mice (8-week old, female, 5 mice per group). The day of this transplantation was designated as Day 0. Then, 0.5, 0.05 or 0.005 mg/kg of the test compound dissolved in physiological saline solution was orally administered to the mice a total of 7 times on alternate days until Day 15, beginning on Day 1. On day 30, the size (shorter diameter^2 ×longer diameter/2) of tumor and the weight of tumor were measured. The results in this treated group of mice were compared with those in the control group of mice to calculate tumor inhibition rate (TIR, %) according to the following equation: [formula] where C denotes the size or weight of tumor in the control group, and T denotes the size or weight of tumor in the treated group.

[1] = tested on: cell-mediated immunity (D.T.H. response to sheep red blood cells); test: Delayed Type Hypersensitivity (D.T.H.) to SRBC in normal mice, Test Example 1; conditions: for Increased thickness of footpad / T/C (%): single oral dose; for T/C (%): control = 100
Experimental: Effect of arphamenine on cell-mediated immunity in normal mice.
Effect of arphamenines A and B on the cell-mediated immunity was tested according to a known Delayed Type Hypersensitivity (D.T.H.) technique (see P. H. Lagrange, G. B. Mackaness and T. E. Miller: "J. Exp. Med.", 139, 1529~1539 (1974)) using mice immunized with sheep red blood cells (SRBC) as the antigen inoculated to the foot-pad pad of the mice.
Thus, 10^8 SRBC suspended in 0.05 ml of physiological saline was inoculated by subcutaneous injection to the one side of hind footpad of CDF1 mice (5 mice per group, female, 8-weeks old) to make immunization. At the time of this immunization, an aqueous solution containing 5 mg/kg, 0.5 mg/kg, 0.05 mg/kg or 0.005 mg/kg of arphamenine A or B was administered orally at a single dose to each test mice. 4 Days after the immunization, 10^8 SRBC in 0.05 ml of physiological saline was injected subcutaneously into the other side of the hind footpad of the test mice for elicitation of D.T.H. response. 24 Hours after the eliciting injection, the thickness (in mm) of the hind footpad having received the eliciting injection of SRBC was measured with calipers. At the same time, the thickness of the other side of footpad which had not received the eliciting injection of SRBC was also measured in each mouse.
The increase of footpad thickness (the swelling degree) was calculated by the following equation: [formula]
The effect of arphamenine on the DTH response was evaluated by the following equation: [formula]
Therefore, the assumption was here that the value for the control mice (untreated) was evaluated to be 100%.

aminopeptidase B = target: T1, aminopeptidase B (Rattus norvegicus, UniProt O09175); test: Inhibition of aminopeptidase B (arginine-β-naphthylamide degradation, modified Hoppusu method); format: biochemical
T1 construct: an aminopeptidase B which had been purified with DEAE-Cellulose; from tissue
T1 sequence (O09175 1-650): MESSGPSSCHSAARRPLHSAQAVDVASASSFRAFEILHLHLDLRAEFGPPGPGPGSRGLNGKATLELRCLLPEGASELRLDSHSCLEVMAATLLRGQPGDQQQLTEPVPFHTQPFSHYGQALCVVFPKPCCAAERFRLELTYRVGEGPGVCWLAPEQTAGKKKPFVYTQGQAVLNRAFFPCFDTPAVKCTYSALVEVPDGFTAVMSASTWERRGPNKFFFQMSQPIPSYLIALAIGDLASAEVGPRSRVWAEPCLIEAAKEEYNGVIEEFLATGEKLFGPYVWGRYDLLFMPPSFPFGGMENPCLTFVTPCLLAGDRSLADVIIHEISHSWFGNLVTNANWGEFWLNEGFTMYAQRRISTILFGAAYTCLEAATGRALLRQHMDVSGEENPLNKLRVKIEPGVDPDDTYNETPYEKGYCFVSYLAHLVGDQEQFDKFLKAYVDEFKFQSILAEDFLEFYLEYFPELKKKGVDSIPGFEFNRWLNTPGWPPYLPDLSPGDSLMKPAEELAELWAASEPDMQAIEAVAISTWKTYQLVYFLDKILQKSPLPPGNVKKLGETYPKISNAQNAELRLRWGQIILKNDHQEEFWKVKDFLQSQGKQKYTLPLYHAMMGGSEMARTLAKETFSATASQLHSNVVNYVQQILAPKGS
Experimental: Tracing of arphamenine which was made during the course of cultivation of the arphamenine-producing strain, as well as during the course of recovery and purification of arphamenine was conducted by determining the anti-aminopeptidase B potency of arphamenine according to the following methods.
In detail, 0.5 ml of 0.1 M tris-hydrochloride buffer solution (pH 7.0) and 0.25 ml of a solution containing an arphamenine specimen were added to 0.25 ml of a substrate solution containing 0.002 M arginine-β-naphthylamide. The mixed solution so obtained was heated at 37° C. for 3 minutes. To the heated solution was added 5 μl of a solution of an aminopeptidase B which had been purified with DEAE-Cellulose according to the enzyme-purification technique of Hoppusu et al. The resulting mixture was reacted for 30 minutes at 37° C., and the resultant reaction mixture was admixed with 1 ml of 1.0 M acetate buffer solution (pH 4.2) containing Fast Garnet GBC (o-aminoazotoluene, diazonium salt) at a concentration of 1 mg/ml and a surfactant "Tween" 20 at a concentration of 10% to stop the enzyme reaction. After allowing the resulting mixture to stand at ambient temperature for 15 minutes, absorbance (a) at 525 nm of the reaction solution was measured. On the other hand, adsorbance (b) at 525 nm of a control reaction solution obtained from the blank test using the buffer solution containing no arphamenine was measured. Percent of inhibition to the aminopeptidase B was calculated from the equation [(b-a)/b]×100.

mice = test: Acute toxicity tests in mice by intravenous injection; format: in vivo
Experimental: Acute toxicity tests in mice by intravenous injection have shown that no deaths are caused by arphamenine A in an iv. dose of 250 mg/kg or by arphamenine B in an iv. dose of 150 mg/kg. […] These new compounds are therefore useful as immunopotentiators and anti-tumor immunomodulators or as adjuvants to various chemotherapeutic agents for use in the treatment of carcinomas.

[2] = tested on: cell-mediated immunity (D.T.H. to picryl chloride); test: D.T.H. to picryl chloride in mice bearing Ascites Sarcoma 180 tumor, Test Example 2 (2); format: in vivo, CDF1 mice; conditions: for Increased thickness of auricles / T/C (%): Table 4, 6 times/day, Day 1 to Day 8; for T/C (%): control = 100
Experimental: (2) D.T.H. to picryl chloride
In mice bearing Ascites Sarcoma 180 tumor, the effect of arphamenine A on D.T.H. to picryl chloride as antigen was investigated. Thus, 10^6 cells of Ascites Sarcoma 180 were transplanted intraperitoneally into CDF1 mice (12-week-old, female, 6 mice per group). The day of this transplantation was designated as Day 0. On Day 1, a shaved area (25 mm×15 mm) of the abdomen of the mice was immunized with 0.6 ml of a solution of 6% picryl chloride in ethanol which had been absorbed to a mass of cut absorbent cotton (20 mm×20 mm×2 mm in size). On Day 8, the thickness of the auricles of both ears was measured with a dial gauge to obtain a baseline value (a). Then, both auricles were elicited for the D.T.H. response with a solution of 1% picryl chloride in olive oil which had been absorbed to a mass of cut absorbent cotton (10 mm×4 mm×1 mm in size). On Day 9, the swelling degree on the elicited auricles was measured with a dial gauge to obtain a value (b). The baseline value (a) was subtracted from the value (b) to determine an increase in the thickness of the auricles (b-a) in the control group of mice (c).
Separately, 0.5, 0.05 or 0.005 mg/kg of the test compound dissolved in physiological saline was orally administered to another group of CDF1 mise 6 times/day for consecutive days of from Day 1 to Day 8 inclusive, and then the picryl chloride elicitation was carried out with the treated group of mice in the same way as in the control group of mice. The increase in the thickness of both auricles (b'-a') in this treated group of mice (T) was determined in the same way as the control group of mice.
The rate (T/C, %) of the increased thickness of auricles of the treated group (T) in term of that for the control group (c) was calculated from the following equation [formula]
Assumed that the value for the control group was evaluated to be 100%, the activity of the test compound to potentiate cell-mediated immunity was estimated.

[3] = tested on: cell-mediated immunity (D.T.H. to SRBC); test: D.T.H. to SRBC in tumor-bearing (Sarcoma 180) mice, Test Example 2 (1); format: in vivo, CDF1 mice; conditions: for Increased thickness of footpad / T/C (%): 4 days; for T/C (%): control = 100; for cell-mediated immunity depressed by the tumor (in words): tumor-bearing
Experimental: The swelling degree on the footpad in mice was evaluated in the same way as in Test Example 1, except that the CDF1 mice employed for the test previously received an intraperitoneal inoculation of 10^6 Sarcoma 180 cells, and that arphamenine A was administered intraperitoneally once daily for 4 consecutive days, including the day of inoculation of SRBC, and two days after the administration, SRBC was given to the treated mice to elicit D.T.H. response.

[4] = 0.05 mg/kg orally, **P < 0.05 (Ttest)
[5] = 0.05 mg/kg orally, *P < 0.1 (Ttest)
[6] = crude powder after CM-Sephadex C-25, Example 3, read-out: anti-aminopeptidase B potency, IC50 (converted)
[7] = light yellow powder after Biogel P-2, Examples 8 and 9, read-out: anti-aminopeptidase B potency (IC50) (converted)
[8] = Table 3, fourth line, 0.005 mg/kg intraperitoneally once daily
[9] = Table 3, third line, 0.005 mg/kg (so in the source) intraperitoneally once daily
[10] = Table 3, 0.5 mg/kg intraperitoneally once daily
[11] = Table 3, 5 mg/kg intraperitoneally once daily

SMILES: N=C(N)NCCCC(N)C(=O)CC(Cc1ccccc1)C(=O)O (centres unmarked) [Arphamenine A]
- Average size of tumor (Ehrlich Solid Tumor; 0.005 mg/kg orally): 2378 ± 3138 mm^3
- Average weight of tumor (Ehrlich Solid Tumor; 0.005 mg/kg orally): 1.62 ± 1.44 g
- TIR (%), tumor size (Ehrlich Solid Tumor; 0.005 mg/kg orally): 55.2%
- TIR (%), tumor weight (Ehrlich Solid Tumor; 0.005 mg/kg orally): 39.3%
- TIR (%), tumor size (Ehrlich Solid Tumor; 0.05 mg/kg orally): 41.2%
- TIR (%), tumor weight (Ehrlich Solid Tumor; 0.05 mg/kg orally): 37.8%
- Average weight of tumor (Ehrlich Solid Tumor; [4]): 1.66 ± 1.50 g
- Average size of tumor (Ehrlich Solid Tumor; [5]): 3120 ± 3584 mm^3
- Average size of tumor (Ehrlich Solid Tumor; 0.5 mg/kg orally): 4467 ± 4311 mm^3
- Average weight of tumor (Ehrlich Solid Tumor; 0.5 mg/kg orally): 2.62 ± 1.90 g
- TIR (%), tumor size (Ehrlich Solid Tumor; 0.5 mg/kg orally): 15.8%
- TIR (%), tumor weight (Ehrlich Solid Tumor; 0.5 mg/kg orally): 1.9%
- host-mediated anti-tumor effect in terms of tumor size and tumor weight (in words) (Ehrlich Solid Tumor; 0.05 and 0.005 mg/kg): produced a host-mediated anti-tumor effect
- host-mediated anti-tumor effect (in words) (Ehrlich Solid Tumor): exhibit a host-mediated anti-tumor effect
- Increased thickness of footpad ([1]; Table 1, 0.005 mg/kg): 11.9 ± 1.00 × 0.1 mm
- T/C (%) ([1]; Table 1, 0.005 mg/kg): 143%
- Increased thickness of footpad ([1]; Table 1, 0.05 mg/kg): 13.0 ± 0.97 × 0.1 mm
- T/C (%) ([1]; Table 1, 0.05 mg/kg): 157%
- Increased thickness of footpad ([1]; Table 1, 0.5 mg/kg): 11.5 ± 1.29 × 0.1 mm
- T/C (%) ([1]; Table 1, 0.5 mg/kg): 139%
- Increased thickness of footpad ([1]; Table 1, 5 mg/kg): 10.4 ± 0.77 × 0.1 mm
- T/C (%) ([1]; Table 1, 5 mg/kg): 125%
- cell-mediated immunity in normal animals (in words) [1]: potentiate the cell-mediated immunity in normal animals
- IC50 (aminopeptidase B; colorless, pure powder, Examples 4 and 5, read-out: anti-aminopeptidase B potency, IC50 (converted)): 16.9 nM
- IC50 (aminopeptidase B; colorless, pure product, pH 7.0, 37° C., 30 minutes, read-out: IC50, dose giving 50% inhibition to the aminopeptidase B (converted)): 15.6 nM
- IC50 (aminopeptidase B; [6]): 20.3 nM
- IC50 (aminopeptidase B; [7]): 93.6 nM
- deaths, acute toxicity (mice; iv. dose of 250 mg/kg): no deaths
- activity to enhance cell-mediated immunity (in words) ([2]; 0.05 mg/kg): a significant activity to enhance cell-mediated immunity was obtained
- Increased thickness of auricles ([2]; 0.005 mg/kg orally): 6.40 ± 0.63 × 0.1 mm
- T/C (%) ([2]; 0.005 mg/kg orally): 143.8%
- Increased thickness of auricles ([2]; 0.05 mg/kg orally, *P <0.05): 7.40 ± 0.72 × 0.1 mm
- T/C (%) ([2]; 0.05 mg/kg orally): 166.3%
- Increased thickness of auricles ([2]; 0.5 mg/kg orally): 6.05 ± 0.97 × 0.1 mm
- T/C (%) ([2]; 0.5 mg/kg orally): 136.0%
- Increased thickness of footpad [3, 8]: 5.9 ± 0.79 × 0.1 mm
- T/C (%) [3, 8]: 131%
- Increased thickness of footpad [3, 9]: 6.5 ± 1.29 × 0.1 mm
- T/C (%) [3, 9]: 144%
- Increased thickness of footpad [3, 10]: 6.7 ± 1.03 × 0.1 mm
- T/C (%) [3, 10]: 149%
- Increased thickness of footpad [3, 11]: 5.8 ± 1.19 × 0.1 mm
- T/C (%) [3, 11]: 129%
- cell-mediated immunity depressed by the tumor (in words) [3]: modulate the cell-mediated immunity depressed by the tumor

SMILES: N=C(N)NCCCC(N)C(=O)CC(Cc1ccc(O)cc1)C(=O)O (centres unmarked) [Arphamenine B]
- host-mediated anti-tumor effect (in words) (Ehrlich Solid Tumor): exhibit a host-mediated anti-tumor effect
- Increased thickness of footpad ([1]; Table 2, 0.005 mg/kg): 12.4 ± 1.40 × 0.1 mm
- T/C (%) ([1]; Table 2, 0.005 mg/kg): 143%
- Increased thickness of footpad ([1]; Table 2, 0.05 mg/kg): 14.0 ± 1.33 × 0.1 mm
- T/C (%) ([1]; Table 2, 0.05 mg/kg): 161%
- Increased thickness of footpad ([1]; Table 2, 0.5 mg/kg): 14.7 ± 1.74 × 0.1 mm
- T/C (%) ([1]; Table 2, 0.5 mg/kg): 169%
- Increased thickness of footpad ([1]; Table 2, 5 mg/kg): 13.7 ± 1.77 × 0.1 mm
- T/C (%) ([1]; Table 2, 5 mg/kg): 157%
- cell-mediated immunity in normal animals (in words) [1]: potentiate the cell-mediated immunity in normal animals
- IC50 (aminopeptidase B; [6]): 6.84 nM
- IC50 (aminopeptidase B; [7]): 56.5 nM
- deaths, acute toxicity (mice; iv. dose of 150 mg/kg): no deaths
- cell-mediated immunity depressed by the tumor (in words) [3]: modulate the cell-mediated immunity depressed by the tumor

SMILES: CC(C)C[C@H](NC(=O)[C@@H](O)[C@H](N)Cc1ccccc1)C(=O)O [Bestatin, reference compound]
- TIR (%), tumor size (Ehrlich Solid Tumor; 0.05 mg/kg orally): 60.6%
- TIR (%), tumor weight (Ehrlich Solid Tumor; 0.05 mg/kg orally): 44.9%
- Average weight of tumor (Ehrlich Solid Tumor; [4]): 1.47 ± 0.92 g
- Average size of tumor (Ehrlich Solid Tumor; [5]): 2089 ± 1946 mm^3
- Increased thickness of footpad ([1]; Table 1, 0.5 mg/kg): 12.5 ± 1.24 × 0.1 mm
- T/C (%) ([1]; Table 1, 0.5 mg/kg): 151%
- Increased thickness of footpad ([1]; Table 2, 0.5 mg/kg): 13.0 ± 1.13 × 0.1 mm
- T/C (%) ([1]; Table 2, 0.5 mg/kg): 149%
- Increased thickness of footpad [3, 11]: 6.0 ± 0.96 × 0.1 mm
- T/C (%) [3, 11]: 133%

Source: patent US4595698A, “Physiologically active substance, arphamenine and production thereof” (Zaidan Hojin Biseibutsu Kagaku Kenkyu Kai, priority 1982, dated 1986)
